{"source": "patent US20050163775A1", "about": "“Combination therapy for B cell disorders” (Genentech, Inc., priority 2003, published 2005)", "key": {"B cells": {"test_system": "B cells", "conditions": "peripheral blood, lymph nodes, bone marrow; cited from earlier work"}, "[1]": {"test_system": "T-independent B cell response", "assay": "T-independent immune response to Streptococcus pneumoniae IV after B cell depletion", "format": "in vivo, mouse", "conditions": "mAb day 0, S. pneumoniae IV i.v. day 7, response day 11", "experimental": "On the 3 panels at the right, the spleen cells were stained for the streptococcus polysaccharide-phosphatidyl choline (the TI antigen). CD138 is a marker for plasma cells.\nNext, it was determined whether upon B cell depletion, the mice were able to develop T independent immune response. […] At day 7, the mice were injected i.v. with Streptococcus pneumoniae IV to induce a response to the polysaccharide."}, "lymphoid B cell lines": {"test_system": "lymphoid B cell lines", "conditions": "binds human complement; cited from earlier work"}}, "data": [{"substance": "rituximab [Rituxan]", "values": [{"measurement": "B cell depletion", "setting": "B cells", "result": "depletes B cells from the peripheral blood, lymph nodes, and bone marrow"}, {"measurement": "B cell response from the marginal zone and germinal centers of the spleen to T-independent antigen", "setting": "[1]", "result": "did not affect the B cell response"}, {"measurement": "complement-dependent cytotoxicity (CDC)", "setting": "lymphoid B cell lines", "result": "lyses lymphoid B cell lines through complement-dependent cytotoxicity (CDC)"}]}]}
